Measurements as given in patent publication US4644006A, “Substituted 3,4-diamino-1,2,5-thiadiazoles having histamine H2 -receptor antagonist activity” (Bristol-Myers Company, priority 1984, dated 1987).
Where two headings read alike, the source gives them in different places.

Key:
[1] = molecular target: T1, histamine H2-receptors (isolated guinea pig right atria) (Cavia porcellus, UniProt P47747); assay: Histamine H2-receptor antagonism, isolated guinea pig right atria assay; parameters: estimated dissociation constant KB: unit not given here; details: for effect on histamine or dimaprit dose-response curves: at the concentrations utilized, 30-minute incubation
T1 construct: The spontaneously beating right atrium was dissected free from other tissues; from tissue; host or cells: isolated spontaneously beating right atrium of male Hartley guinea pigs
Procedure: Subsequent investigations by Hughes and Coret, Proc. Soc. […] Black et al., Agents and Actions, 3, 133 (1973) and Brimblecombe et al., Fed. […] The present comparative studies were carried out using a modification of the procedure reported by Reinhardt et al., Agents and Actions, 4, 217 (1974).
The spontaneously beating right atrium was dissected free from other tissues and a silk thread (4-0) attached to each end.

[2] = tested on: gastric acid secretion (Heidenhain pouch dog); assay: Gastric antisecretory activity in the histamine-stimulated Heidenhain pouch dog; assay type: in vivo; details: for ED50: Canis lupus familiaris, 0.5 h, read-out: ED50 i.v.
Procedure: Prior to surgery, hematology and blood chemistry profiles are obtained and an assessment made as to the general health of selected female dogs. Dogs are vaccinated with Tissue Vax 5 (DHLP-Pitman-Moore) and housed in general animal quarters for four weeks' observation so incipient diseases may become apparent. Dogs are fasted with water ad libitum 24 hours prior to surgery.
Anesthesia is induced with Sodium Pentothal (Abbott) 25-30 mg/kg iv. Subsequent anesthesia is maintained with methoxyflurane (Pitman-Moore). A mid-line linea alba incision from xiphoid to umbilicus provides good exposure and ease of closure. The stomach is pulled up into the operative field, the greater curvature stretched out at multiple points and clamps placed along the selected line of incision. The pouch is made from the corpus of the stomach so that true parietal cell juice is obtained. About 30% of the corpus volume is resected. The cannula is made of light-weight,biologically-inert material such as nylon, Delrin or surgical stainless steel with dimensions and attachments after DeVito and Harkins [J. Appl. Physiol., 14, 138 (1959)]. Post-operatively, dogs are medicated with antibiotics and an analgesic. They are allowed 2-3 months for recovery. Experiments are carried out in the following way: Dogs are fasted overnight (18 hours) with water ad libitum prior to each experiment. The dogs are placed in a sling and a saphenous vein cannulated for drug administration. Histamine as the base (100 μg/kg/hr) and chlorpheniramine maleate (0.25 mg/kg/hr) are infused continuously (in a volume of 6 ml/hr) with a Harvard infusion pump.
Ninety minutes' infusion are allowed for the dogs to reach a steady state of acid output. At this time the drug or normal saline (control) is administered concomitantly with the secretagogue in a volume of 0.5 ml/kg over a 30 second period. Infusion of the secretagogue is continued and 15 minute samples of the gastic juice are taken for 4.5 hours. Each sample is measured to the nearest 0.5 ml and tritratable acidity is determined by titrating a 1 ml sample to pH 7.0 with a 0.2N NaOH, employing a fully automatic titration system (Metrohm). Titratable acid output is calculated in microequivalents by multiplying the volume is milliliters by the acid concentration in microequivalents per milliliter.
Results at peak activity after bolus intravenous administration of test compound are expressed as percent inhibition relative to control readings. Dose-response curves were constructed utilizing at least three dose levels with a minimum of three dogs at each dose level. […]

histamine H2-receptors = details: Black et al., Nature, 236, 385 (1972); cited from earlier work
peptic ulcer disease = details: Gray et al., Lancet, 1, 8001 (1977); cited from earlier work

T1 sequence (P47747 whole entry): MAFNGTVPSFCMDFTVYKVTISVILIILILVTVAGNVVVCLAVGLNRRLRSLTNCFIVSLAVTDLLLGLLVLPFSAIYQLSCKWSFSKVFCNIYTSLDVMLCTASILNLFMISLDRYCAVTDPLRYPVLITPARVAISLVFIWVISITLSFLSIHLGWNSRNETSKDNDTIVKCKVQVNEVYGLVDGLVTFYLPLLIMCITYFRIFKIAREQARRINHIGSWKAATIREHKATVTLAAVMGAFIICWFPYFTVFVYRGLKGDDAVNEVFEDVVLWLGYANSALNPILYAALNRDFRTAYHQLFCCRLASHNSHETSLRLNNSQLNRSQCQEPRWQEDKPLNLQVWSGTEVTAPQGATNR

## N=C(N)Nc1nc(CSCCNc2nsnc2N)cs1 [Example 1, 3-Amino-4-{2-[(2-guanidinothiazol-4-yl)methylthio]ethylamino}-1,2,5-thiadiazole]
[1]
  effect on histamine or dimaprit dose-response curves: Parallel shifts in dose-response curves were obtained without depressing the maximal response
[1]; estimated by method of Furchgott, KB = concentration of antagonist/dose ratio-1, ± S.E., N = 5 preparations
  estimated dissociation constant KB: 0.0094 ± 0.0018
[1]; from KB, isolated guinea pig right atria, cimetidine = 1.0
  Potency Ratio (cimetidine = 1.0): 44
[2]; intravenous dose giving 50% inhibition at time of peak activity, i.e. 30 minutes post dose, parentheses: 95% confidence limits, histamine 100 μg/kg/hr
  ED50: 0.082 µmol/kg
[2]; i.v., Heidenhain pouch dog, cimetidine = 1.0, Probit analysis
  Potency Ratio (cimetidine = 1.0): 32
[2]; intravenous dog model, relative to cimetidine
  duration of action of antisecretory activity: prolonged duration of action relative to cimetidine

## CNC(=S)NCCCCc1cnc[nH]1 [burimamide]
Histamine H2-receptors
  type of antagonism at histamine H2-receptors: competitive antogonist

## CN/C(=N/CCSCc1nc[nH]c1C)NC#N [cimetidine, reference compound]
[1]
  effect on histamine or dimaprit dose-response curves: Parallel shifts in dose-response curves were obtained without depressing the maximal response
[2]; iv
  ED50: 2.6 µmol/kg
Peptic ulcer disease
  clinical effectiveness in peptic ulcer disease: effective therapeutic agent in the treatment of peptic ulcer disease
